Q: What does the source list for `O=c1c(-c2ccc(O)cc2)coc2cc(O[C@@H]3O[C@H](CO)[C@@H](O)[C@H](O)[C@H]3O)ccc12`?
A: solubility (mole fraction) (in THF, 283.2 K): 0.000784; solubility (mole fraction) (in THF, 293.2 K): 0.00182; solubility (mole fraction) (in THF, 303.2 K): 0.00684; solubility (mole fraction) (in THF, 313.2 K): 0.0165; solubility (mole fraction) (in THF, 323.2 K): 0.0417; solubility (mole fraction) (in acetone, 283.2 K): 0.000148; solubility (mole fraction) (in acetone, 293.2 K): 0.000241; solubility (mole fraction) (in acetone, 303.2 K): 0.000326; solubility (mole fraction) (in acetone, 313.2 K): 0.000458; solubility (mole fraction) (in acetone, 323.2 K): 0.000553; solubility (mole fraction) (in acetonitrile, 283.2 K): 5.77e-06; solubility (mole fraction) (in acetonitrile, 293.2 K): 9e-06; solubility (mole fraction) (in acetonitrile, 303.2 K): 1.4e-05; solubility (mole fraction) (in acetonitrile, 313.2 K): 2e-05; solubility (mole fraction) (in acetonitrile, 323.2 K): 3.3e-05; solubility (mole fraction) (in chloroform, 283.2 K): 3.83e-07; solubility (mole fraction) (in chloroform, 293.2 K): 8.76e-07; solubility (mole fraction) (in chloroform, 303.2 K): 1.6e-06; solubility (mole fraction) (in chloroform, 313.2 K): 2.36e-06; solubility (mole fraction) (in chloroform, 323.2 K): 3.2e-06; solubility (mole fraction) (in cyclohexane, 283.2 K): 1.25e-07; solubility (mole fraction) (in cyclohexane, 293.2 K): 2.95e-07; solubility (mole fraction) (in cyclohexane, 303.2 K): 5.56e-07; solubility (mole fraction) (in cyclohexane, 313.2 K): 1.02e-06; solubility (mole fraction) (in cyclohexane, 323.2 K): 1.37e-06; solubility (mole fraction) (in ethanol, 283.2 K): 0.000291; solubility (mole fraction) (in ethanol, 293.2 K): 0.000397; solubility (mole fraction) (in ethanol, 303.2 K): 0.000499; solubility (mole fraction) (in ethanol, 313.2 K): 0.000669; solubility (mole fraction) (in ethanol, 323.2 K): 0.000813; solubility (mole fraction) (in ethyl acetate, 283.2 K): 5.38e-06; solubility (mole fraction) (in ethyl acetate, 293.2 K): 7.88e-06; solubility (mole fraction) (in ethyl acetate, 303.2 K): 1.58e-05; solubility (mole fraction) (in ethyl acetate, 313.2 K): 4.24e-05; solubility (mole fraction) (in ethyl acetate, 323.2 K): 6.74e-05; solubility (mole fraction) (in isopropanol, 283.2 K): 0.00016; solubility (mole fraction) (in isopropanol, 293.2 K): 0.000202; solubility (mole fraction) (in isopropanol, 303.2 K): 0.000283; solubility (mole fraction) (in isopropanol, 313.2 K): 0.000427; solubility (mole fraction) (in isopropanol, 323.2 K): 0.000503; solubility (mole fraction) (in methanol, 283.2 K): 8.78e-05; solubility (mole fraction) (in methanol, 293.2 K): 0.000162; solubility (mole fraction) (in methanol, 303.2 K): 0.000339; solubility (mole fraction) (in methanol, 313.2 K): 0.000516; solubility (mole fraction) (in methanol, 323.2 K): 0.000794; solubility (mole fraction) (in n-butanol, 283.2 K): 0.000141; solubility (mole fraction) (in n-butanol, 293.2 K): 0.000211; solubility (mole fraction) (in n-butanol, 303.2 K): 0.000253; solubility (mole fraction) (in n-butanol, 313.2 K): 0.000353; solubility (mole fraction) (in n-butanol, 323.2 K): 0.000479; solubility (mole fraction) (in water, 283.2 K): 2.36e-06; solubility (mole fraction) (in water, 293.2 K): 4.1e-06; solubility (mole fraction) (in water, 303.2 K): 6.91e-06; solubility (mole fraction) (in water, 313.2 K): 9.39e-06; solubility (mole fraction) (in water, 323.2 K): 1.58e-05

From BigSolDB 2.1
